The values that follow come from PubChem BioAssay AID624405 (Broad Institute, 2012).

In this experiment the test system is C2C12 myotubes + simvastatin, ATP luminescence, 48 h. Briefly: rescue of simvastatin-induced ATP loss – cell-based, C2C12 myotubes, ATP luminescence, cherry pick, dose response (AID 624405).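 Note: myotubes are challenged with simvastatin at 10 µM to lower ATP.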

Inconclusive results are not listed.

`C=CCn1c(=O)[nH]c(=O)c2c(N)c(C(=O)c3ccc(OC)cc3)sc21`: the AC40 is 14.5 µM.

For the compound `COc1ccc(S(=O)(=O)Nc2ccc3c(c2)CC(=O)N([C@H](C)CO)C[C@@H](C)[C@H](CN(C)CC2CCCCC2)O3)cc1`, the AC40 is 2.63 µM.

For `CC1Cc2ccccc2N1C(=O)CSc1nnc(Cc2ccccc2)n1CCc1ccccc1` (stereo not drawn), the AC40 was 8.6 µM.

Turning to `CC(=O)c1cc(F)c(N2CCCC2)cc1C`, the AC40 was 17.4 µM.

Take `CC1(Cc2ccc(Cl)cc2)C(=O)Nc2ccc(-c3cccnc3)cc21` (stereo not drawn): the AC40 was 15.8 µM.

As to `O=C(NCC(c1cccnc1)N1CCN(c2ccc(F)cc2)CC1)c1ccc2c(c1)OCO2` (stereo not drawn), the AC40 is 5.7 µM.

For `O=C(C[C@H]1CC[C@@H]2[C@H](COC[C@H](O)CN2CCC(F)(F)F)O1)NCc1ccc(Oc2ccccc2)cc1`, the AC40 was 7.6 µM.

As for `CC(C)(C)NC(=O)CN(C(=O)Cn1nnc(-c2ccccc2F)n1)c1cccc2c1CCCC2`, the AC40 is 19.4 µM.

Consider `Cc1cc(C)c(C)c(S(=O)(=O)NCC(=O)N2CCCC2)c1C`, for which the AC40 is 13.2 µM.

Consider `O=S(=O)(Nc1nc2c(s1)CCCC2)c1ccc2ccccc2c1`, for which the AC40 is 5.94 µM.

For `Cc1ccc(C)c(NC(=O)C2CC3c4ccccc4C2c2ccccc23)c1` (stereo not drawn), the AC40 was 3.1 µM.

Take `OC(c1cccc(OCc2ccccc2)c1)c1nnc(-c2ccccc2)o1` (stereo not drawn): the AC40 is 5.24 µM.

For the compound `C[C@H]1CN([C@@H](C)CO)C(=O)Cc2cc(NC(=O)Nc3cccc4ccccc34)ccc2O[C@H]1CN(C)Cc1ccc(C(=O)Nc2ccccc2N)cc1`, the AC40 was 2.05 µM.

Regarding `O=C1N2CCCc3cccc(c32)C12Nc1ccccc1S2` (stereo not drawn), the AC40 is 14.5 µM.

Take `C[C@@H]1CN([C@H](C)CO)C(=O)c2cc(NC(=O)Cc3cn(C)c4ccccc34)ccc2O[C@@H]1CN(C)Cc1ccc(C(=O)Nc2ccccc2N)cc1`: the AC40 is 9.69 µM.

As for `Cc1ccc(S(=O)(=O)N2CCN(S(=O)(=O)c3ccc(C)cc3)C2c2ccccc2)cc1`, the AC40 is 18.6 µM.

As for `COCc1nc2ccccc2n1CCCOc1ccccc1`, the AC40 is 13.4 µM.

On to `C[C@@H]1CN([C@H](C)CO)C(=O)Cc2cc(NC(=O)CCCCCC(=O)Nc3ccccc3N)ccc2O[C@@H]1CN(C)CC1CCCCC1`, for which the AC40 is 15.4 µM.

Consider `Cc1ccc(C2CC2c2n[nH]c(=S)n2-c2ccc(C)cc2)cc1` (stereo not drawn), for which the AC40 is 6.33 µM.

With `C[C@@H]1C[C@@H]([C@H](O)CC2CC(=O)NC(=O)C2)C(=O)[C@@H](C)C1`, the AC40 is under 0.16 µM.

For `CCc1ccc(CNCc2cccnc2)cc1`, the AC40 is 17.7 µM.

As for `CCCCCCn1c(C(C)O)nc2ccccc21` (stereo not drawn), the AC40 was 1.94 µM.

With `CCC(C(=O)N(C(C)C)C(C)C)c1ccccc1` (stereo not drawn), the AC40 was 18.8 µM.

For `COc1cc2c(cc1OC)C(=O)CCS2`, the AC40 was 1.88 µM.

On to `CCCn1c(NC(=O)c2ccco2)nc2ccccc21`, for which the AC40 is 1.39 µM.

`CCCCn1c(C(C)NC(=O)c2cccs2)nc2ccccc21` (stereo not drawn): the AC40 is 3.75 µM.

Consider `CCOC(=O)N1CCN(C(=O)CN(Cc2ccccc2)S(=O)(=O)c2ccc(OC)c(Cl)c2)CC1`, for which the AC40 is 15.7 µM.

On to `N#Cc1nc(-c2ccco2)oc1N1CCCC1`, for which the AC40 was 0.199 µM.

Turning to `Cc1ccc(S(=O)(=O)N2CCN(C(=O)c3cccs3)CC2)cc1C`, the AC40 is 9.44 µM.

As to `Cc1nn2c3ccccc3n(Cc3ccccc3)c2nc1=O`, the AC40 was 19 µM.

As for `COc1ccc(S(=O)(=O)Nc2ccc3c(c2)CC(=O)N([C@@H](C)CO)C[C@@H](C)[C@H](CN(C)Cc2ccc(-c4ccccc4)cc2)O3)cc1`, the AC40 is 11 µM.

For `C[C@@H]1CN([C@H](C)CO)C(=O)c2cc(NC(=O)Nc3cccc4ccccc34)ccc2O[C@H]1CN(C)Cc1ccc(C(=O)Nc2ccccc2N)cc1`, the AC40 was 17 µM.

As to `Cc1cccc(S(=O)(=O)N2CCCCN3[C@H](CO)[C@@H](c4ccc(C#C[C@H](C)O)cc4)[C@@H]3C2)c1`, the AC40 is 17.3 µM.

On to `CCC(=O)/C=C1/Sc2ccccc2N1CC`, for which the AC40 is 7.21 µM.

Take `C[C@@H]1CN([C@H](C)CO)C(=O)Cc2cc(NC(=O)CCCCCC(=O)Nc3ccccc3N)ccc2O[C@@H]1CN(C)Cc1ccccc1`: the AC40 is 14.4 µM.

As to `CC(C)C(=O)N(c1ccc2oc(=O)sc2c1)S(=O)(=O)c1ccccc1`, the AC40 was 3.85 µM.

As for `N#C[C@@H]1[C@@H](c2ccc(-c3cccc(F)c3)cc2)[C@H](CO)N1C(=O)NC1CCCC1`, the AC40 was 0.38 µM.

As for `C[C@@H]1CN([C@H](C)CO)C(=O)Cc2cc(NC(=O)CCCCCC(=O)Nc3ccccc3N)ccc2O[C@H]1CN(C)Cc1ccc(-c2ccccc2)cc1`, the AC40 was 6.3 µM.

For `COc1ccc(C#Cc2cnc3c(c2)C(=O)N([C@H](C)CO)C[C@H](C)[C@H](CN(C)Cc2ccccc2)O3)cc1OC`, the AC40 is 2.66 µM.

Consider `CC(C)(C)c1ccc(OCC(=O)N/N=C/c2cc(Br)ccc2OC(=O)c2ccco2)cc1`, for which the AC40 was 2.32 µM.

Take `C[C@H]1CN([C@@H](C)CO)S(=O)(=O)c2ccc(C#CC3CC3)cc2O[C@H]1CN(C)C(=O)Nc1cc(F)ccc1F`: the AC40 was 3.66 µM.

Regarding `COc1ccc(S(=O)(=O)N2CCCCC2)cc1C(C)C`, the AC40 was 8.77 µM.

Consider `COc1cc(NC(=O)CN(C)S(=O)(=O)c2ccc3c(c2)CC(C)N3C(C)=O)cc(OC)c1OC` (stereo not drawn), for which the AC40 is 15.9 µM.

Turning to `CS(=O)(=O)N1CCN(C(=O)c2cc(-c3ccncc3)nc3ccc(Cl)cc23)CC1`, the AC40 is 11.4 µM.

Turning to `COc1ccc(S(=O)(=O)Nc2cccc3c2O[C@H](CN(C)C(=O)Nc2ccc(F)cc2)[C@H](C)CN([C@@H](C)CO)C3=O)cc1`, the AC40 is 6.89 µM.

For `C[C@H](CO)N1C[C@H](C)[C@H](CN(C)Cc2ccc(C(=O)Nc3ccccc3N)cc2)Oc2ccc(NC(=O)Nc3ccc(F)cc3)cc2CC1=O`, the AC40 is 1.97 µM.

As to `C[C@@H]1CN([C@@H](C)CO)C(=O)Cc2cc(NC(=O)CCCCCC(=O)Nc3ccccc3N)ccc2O[C@@H]1CN(C)CC1CCCCC1`, the AC40 was 7.13 µM.

Turning to `C[C@@H]1CN([C@H](C)CO)C(=O)c2cccc(NC(=O)c3nc4ccccc4s3)c2O[C@@H]1CN(C)Cc1ccc(C(=O)Nc2ccccc2N)cc1`, the AC40 was 0.462 µM.

For the compound `O=C(C[C@H]1CC[C@@H]2[C@H](COC[C@@H](O)CN2Cc2ccc(Oc3ccccc3)cc2)O1)N1CCCCC1`, the AC40 was 3.19 µM.

For `COC(=O)[C@@]12CCCCN1[C@H](c1ccc(-c3cccc(Cl)c3)c(OC)c1)[C@@H]1C(=O)N(C)C(=O)[C@@H]12`, the AC40 is 2.72 µM.

In the case of `C[C@@H]1CN([C@@H](C)CO)C(=O)c2cccc(NC(=O)Nc3ccccc3)c2O[C@@H]1CN(C)S(=O)(=O)c1ccc(F)cc1`, the AC40 is 15.1 µM.

As to `CC(C)OC(=O)N(C)C[C@@H]1OCc2ccccc2-c2c(n(C)c3ccccc23)C(=O)N([C@H](C)CO)C[C@H]1C`, the AC40 is 18.1 µM.

Take `O=C(NCc1ccco1)C1CCN(C(=O)c2cc3sccc3n2Cc2ccc(F)cc2)CC1`: the AC40 was 12.1 µM.

Consider `C[C@@H]1CN([C@@H](C)CO)C(=O)Cc2cc(NC(=O)CCCCCC(=O)Nc3ccccc3N)ccc2O[C@H]1CN(C)Cc1ccc(-c2ccccc2)cc1`, for which the AC40 is 10.7 µM.

With `COc1cccc(OC)c1C(=O)N1CCN(S(=O)(=O)c2ccc(C)cc2)CC1`, the AC40 is 0.233 µM.

In the case of `c1ccc(-c2csc3nnc(SCc4ccc5c(c4)OCCO5)n23)cc1`, the AC40 is 3.7 µM.

Regarding `C[C@H]1CN([C@@H](C)CO)C(=O)c2cc(N(C)C)ccc2O[C@@H]1CN(C)Cc1ccc(C(=O)Nc2ccccc2N)cc1`, the AC40 was 5.34 µM.

For `CCOc1ccccc1NC(=O)C1CCCN(S(=O)(=O)c2ccc(OC)c(C)c2)C1` (stereo not drawn), the AC40 is 8.06 µM.
